From BindingDB's records for doi:10.1016/j.bmc.2021.116291 (Fudan University School of Pharmacy, 2021)

Target: Glucagon-like peptide 1 receptor (Homo sapiens, UniProt P43220)
Experiment: Binding affinity to GLP1R (unknown origin) assessed as dissociation rate constant by surface plasmon resonance analysis

Sequence of Glucagon-like peptide 1 receptor (P43220 whole entry): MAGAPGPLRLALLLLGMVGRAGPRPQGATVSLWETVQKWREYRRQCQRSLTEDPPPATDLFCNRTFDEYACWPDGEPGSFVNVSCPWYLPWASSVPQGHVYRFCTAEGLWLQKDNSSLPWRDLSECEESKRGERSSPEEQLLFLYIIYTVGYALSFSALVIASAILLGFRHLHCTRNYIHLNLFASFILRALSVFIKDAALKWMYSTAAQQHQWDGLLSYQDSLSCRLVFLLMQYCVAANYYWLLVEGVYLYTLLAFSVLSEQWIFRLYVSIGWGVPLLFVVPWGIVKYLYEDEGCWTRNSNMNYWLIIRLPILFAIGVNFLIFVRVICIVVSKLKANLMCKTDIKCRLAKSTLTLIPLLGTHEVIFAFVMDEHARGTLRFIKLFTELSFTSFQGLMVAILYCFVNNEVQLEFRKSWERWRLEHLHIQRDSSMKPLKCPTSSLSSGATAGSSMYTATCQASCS

koff [s⁻¹]	SMILES
0.0065	CCCCCCCCCCCC(=O)N[C@@H](CCC(=O)NCCCC[C@H](NC(=O)CC[C@H](NC(=O)CCCCCCCCCCC)C(=O)O)C(=O)NCCOCCOCC(=O)O)C(=O)O
0.00857	CCCCCCCCCCCC(=O)N[C@@H](CCC(=O)NCCCC[C@H](NC(=O)CC[C@H](NC(=O)CCCCCCCCCCC)C(=O)O)C(=O)NCCOCCOCC(=O)NCCOCCOCC(=O)O)C(=O)O
0.0237	CCCCCCCCCCCC(=O)N[C@@H](CCC(=O)NCCCC[C@H](NC(=O)CC[C@H](NC(=O)CCCCCCCCCCC)C(=O)O)C(=O)NCCOCCOCC(=O)NCCOCCOCC(=O)NCCOCCOCC(=O)O)C(=O)O
